These results are taken from paper PMC8386747, “Structure–activity relationship, in vitro and in vivo evaluation of novel dienyl sulphonyl fluorides as selective BuChE inhibitors for the treatment of Alzheimer's disease” (Journal of Enzyme Inhibition and Medicinal Chemistry, 2021).

Read-outs that look alike come from different tables or passages of the source.

Data set [1] concerns the target T1, AChE from electric eel (Electrophorus electricus, UniProt O42275).
T1 construct: assays were performed on AChE from electric eel (C3389-500UN; Sigma); purchased Sigma C3389-500UN
Nature of the data set: EeAChE inhibition assay (Ellman's method). It is filed as biochemical. As to conditions: for inhibition at 20 µM: read-out: AChE % inhibition at 20 µM; for IC50: mean ± SEM, read-out: AChE IC50.
Procedure: (§1) According to the Ellman’s method, assays were performed on AChE from electric eel (C3389-500UN; Sigma) and BuChE from equine serum (C4290-1KU; Sigma). The experiment was performed in 48-well plates in a final volume of 500 µL. Each well contained 0.036 U/mL of eeAChE or eqBuChE, and 0.1 M pH 8 PBS. They were pre-incubated for 20 min at different compound concentrations at 37 °C. […] The DTNB produces the yellow anion 5-thio-2-nitrobenzoic acid along with the enzymatic degradation of ACh or BuCh. Changes in absorbance were measured at 410 nm after 20 min in a PerkinElmer VICTOR Nivo reader. The IC50 values were calculated graphically from inhibition curves (log inhibitor concentration vs percent of inhibition). A control experiment was performed under the same conditions without inhibitor and the blank contained buffer, DMSO, DTNB, and substrate.

Data set [2] deals with T2, BuChE from equine serum (Equus caballus, UniProt P81908).
T2 construct: BuChE from equine serum (C4290-1KU; Sigma); purchased Sigma C4290-1KU; host or cells: equine serum
T2 sequence (P81908 whole entry): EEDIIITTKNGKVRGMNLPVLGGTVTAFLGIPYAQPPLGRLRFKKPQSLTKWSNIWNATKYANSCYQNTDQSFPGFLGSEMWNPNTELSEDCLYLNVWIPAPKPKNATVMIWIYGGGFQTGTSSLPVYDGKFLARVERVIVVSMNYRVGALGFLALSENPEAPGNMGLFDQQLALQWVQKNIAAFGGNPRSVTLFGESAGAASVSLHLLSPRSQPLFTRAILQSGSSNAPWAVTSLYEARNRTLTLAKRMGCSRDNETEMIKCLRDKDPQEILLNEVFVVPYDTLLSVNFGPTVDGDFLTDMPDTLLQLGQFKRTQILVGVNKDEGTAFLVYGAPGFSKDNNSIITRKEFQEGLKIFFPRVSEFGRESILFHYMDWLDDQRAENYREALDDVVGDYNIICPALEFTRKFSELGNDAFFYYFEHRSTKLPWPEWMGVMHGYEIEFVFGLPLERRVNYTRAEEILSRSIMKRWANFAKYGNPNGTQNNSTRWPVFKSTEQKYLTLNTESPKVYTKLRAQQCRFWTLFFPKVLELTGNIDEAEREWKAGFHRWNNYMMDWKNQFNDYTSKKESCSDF
Nature of the data set: eqBuChE inhibition assay (Ellman's method). Particulars: BuChE from horse serum; for inhibition at 20 µM: read-out: BuChE % inhibition at 20 µM; for IC50: mean ± SEM. The class given is biochemical.
Procedure: as §1

Data set [3] in a line: in vitro. Particulars: PAMPA, PAMPA-BBB.
Procedure: (§2) The 96-well UV plate (COSTAR) was manufactured by Corning Corporation, USA, and the commercially available drugs and test compounds were initially dissolved in DMSO at a concentration of 20 mg/mL. The solution was then diluted 200-fold with PBS (pH 7.4 ± 0.1)/EtOH (70/30, v/v) solution to a final concentration of 100 µg/mL.
(§3) The test compound was dissolved in DMSO at 5 mg/mL and diluted 200-fold with universal buffer (final concentration 25 µg/mL) to prepare the secondary stock solution; 200 µL of the secondary stock solution was added to the donor well; the acceptor plate was coated with 4 µL of 20 mg/mL dodecyl porcine polar brain, and then, 200 µL of pH 7.4 universal buffer was added to the acceptor well; the acceptor plate was carefully placed on the donor plate to form a “sandwich” and maintained for 18 h; the drug concentrations in the acceptor, donor and reference wells were determined using a UV microplate reader; the experiment was repeated three times, and the concentrations of the test compound in the donor and acceptor wells were measured using a UV plate spectral reader (PerkinElmer VICT or Nivo, Finland). In at least three independent experiments, each sample was analysed at three wavelengths in a four well.
For data set [4] the following is noted: for BBB penetration: PAMPA-BBB class.
Procedure: as §2, §3
[5] abbreviates: AChE from electric eel, 20 µM, na = no inhibitory activity at 20 µM.

T1 sequence (O42275 24-633): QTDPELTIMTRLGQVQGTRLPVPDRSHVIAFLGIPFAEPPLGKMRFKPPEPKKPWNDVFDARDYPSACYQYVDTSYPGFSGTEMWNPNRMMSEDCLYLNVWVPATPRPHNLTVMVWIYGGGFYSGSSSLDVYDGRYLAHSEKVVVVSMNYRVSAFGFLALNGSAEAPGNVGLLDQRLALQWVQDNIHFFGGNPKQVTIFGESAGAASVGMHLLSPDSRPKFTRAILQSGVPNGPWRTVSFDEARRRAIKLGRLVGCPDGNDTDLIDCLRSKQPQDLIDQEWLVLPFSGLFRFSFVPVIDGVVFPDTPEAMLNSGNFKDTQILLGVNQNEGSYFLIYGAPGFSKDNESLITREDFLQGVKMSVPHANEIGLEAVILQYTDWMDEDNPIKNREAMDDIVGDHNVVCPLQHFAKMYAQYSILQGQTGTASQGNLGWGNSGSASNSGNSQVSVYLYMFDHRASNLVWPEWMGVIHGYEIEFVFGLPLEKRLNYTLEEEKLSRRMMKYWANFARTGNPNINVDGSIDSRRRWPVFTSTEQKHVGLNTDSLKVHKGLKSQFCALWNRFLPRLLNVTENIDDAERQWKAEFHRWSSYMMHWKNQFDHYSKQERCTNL

On to `O=C(Oc1ccc(/C(=C\C=C\c2ccccc2)S(=O)(=O)F)cc1)c1ccccc1` [Compound D6], for which the inhibition at 20 µM in data set [1] (setting [5]) turned out to be 18.7 ± 2.1%; in data set [2] it was 29.7 ± 3.8%.
For `O=S(=O)(F)/C(I)=C/C=C/c1ccc(Br)cc1` [Compound C4], the inhibition at 20 µM in data set [1] (setting [5]) stood at 10.5 ± 3.6%. In addition, the IC50 in data set [2] worked out at 570 ± 30 nM.
Take `O=S(=O)(F)/C(=C/C=C/c1ccccc1)c1ccc(Br)cc1` [Compound D5]: the figures for the inhibition at 20 µM in data set [1] (setting [5]) and in data set [2] were 29 ± 3.4% and 30.5 ± 0.9%, respectively.
`O=S(=O)(F)C(Br)=CC=Cc1ccccc1` [Compound A1, δ-phenyl-α-Br-dienyl sulphonyl fluoride]: the IC50 in data set [2] is 82 ± 7 nM.
In the case of `O=S(=O)(F)/C(C#Cc1ccc(Br)cc1)=C/C=C/c1ccccc1` [Compound D10], the inhibition at 20 µM in data set [1] (setting [5]) is 36.9 ± 1.2%; in data set [2], 22.6 ± 0.7%.
`O=S(=O)(F)/C(I)=C/C=C/c1cccc(C(F)(F)F)c1` [Compound C6]: the inhibition at 20 µM in data set [1] (setting [5]) stood at 24 ± 6%. The IC50 in data set [2] is 500 ± 40 nM.
`COc1ccc(C=CC=C(Br)S(=O)(=O)F)cc1` [Compound A6]: in data set [2], the IC50 turned out to be 310 ± 40 nM.
As to `O=S(=O)(F)C(Br)=CC=Cc1ccc(Br)cc1` [Compound A4], in data set [2], the “BuChE % inhibition at 20 µM” value amounted to 19.2 ± 1.2%.
Turning to `CCc1ccc(/C(=C\C=C\c2ccccc2)S(=O)(=O)F)cc1` [Compound D1], the inhibition at 20 µM in data set [1] (setting [5]) was found to be 25.1 ± 1.6%. In addition, in data set [2], the IC50 stood at 1180 ± 330 nM.
For `O=S(=O)(F)C(Br)=CC=Cc1cccc(Cl)c1` [Compound A14], the inhibition at 20 µM in data set [1] (setting [5]) is 17.9 ± 2%. The compound further displayed an IC50 in data set [2] of 110 ± 20 nM.
For `O=S(=O)(F)/C(Cl)=C/C=C/c1cccc(C(F)(F)F)c1` [Compound B6], in data set [1] (setting [5]), the inhibition at 20 µM came to 26.8 ± 2.7%. Moreover, in data set [2], the IC50 was found to be 500 ± 210 nM.
On the same counts, the results for `COc1ccccc1/C=C/C=C(\Cl)S(=O)(=O)F` [Compound B5] are 34.2 ± 0.4% and 130 ± 10 nM.
Turning to `O=S(=O)(F)/C(I)=C/C=C/c1ccc(F)cc1` [Compound C2], in data set [1] (setting [5]), the inhibition at 20 µM is 17 ± 1.7%. The compound further came in with an IC50 in data set [2] of 450 ± 30 nM.
On to `O=S(=O)(F)/C(C#Cc1ccccc1F)=C/C=C/c1ccccc1` [Compound D9], for which the inhibition at 20 µM in data set [1] (setting [5]) is 47.7 ± 1.9%; in data set [2], 31.7 ± 1%.
On the same counts, the results for `CSc1ccc(/C(=C\C=C\c2ccccc2)S(=O)(=O)F)cc1` [Compound D2] are 25.5 ± 0.4% and 28.2 ± 1.89%.
On the same counts, the results for `COc1ccc(/C(=C\C=C\c2ccccc2)S(=O)(=O)F)cc1` [Compound D3] are 47.9 ± 0.4% and 33.7 ± 1.8%.
Turning to `Cc1cccc(C=CC=C(Br)S(=O)(=O)F)c1` [Compound A15], the IC50 in data set [2] turned out to be 600 ± 120 nM.
On the same count and under the same terms, the result for `O=S(=O)(F)C(Br)=CC=Cc1cccs1` [Compound A13] reads 320 ± 60 nM.
Turning to `COc1ccccc1/C=C/C=C(\I)S(=O)(=O)F` [Compound C5], the inhibition at 20 µM in data set [1] (setting [5]) came out at 39.5 ± 0.3%. In data set [2], this compound showed an IC50 of 190 ± 40 nM.
On to `O=S(=O)(F)/C(I)=C/C=C/c1ccc(Cl)cc1` [Compound C3], for which the inhibition at 20 µM in data set [1] (setting [5]) worked out at 38.9 ± 2.5%. The compound further displayed an IC50 in data set [2] of 3070 ± 1720 nM.
On the same counts, the results for `COc1cccc(C=CC=C(Br)S(=O)(=O)F)c1` [Compound A16] are 35.9 ± 1.4% and 300 ± 40 nM.
In turn, `Cc1ccc(C=CC=C(Br)S(=O)(=O)F)cc1` [Compound A5] returned an IC50 in data set [2] of 1720 ± 340 nM.
In the case of `Cc1ccccc1C=CC=C(Br)S(=O)(=O)F` [Compound A9], the inhibition at 20 µM in data set [1] (setting [5]) came out at 23.2 ± 4%. This compound registered an IC50 in data set [2] of 300 ± 110 nM.
On to `O=S(=O)(F)C(Br)=CC=Cc1ccc(F)cc1` [Compound A2], for which it took 430 ± 10 nM to reach half-maximal inhibition in data set [2] (IC50).
Consider `O=S(=O)(F)/C(Cl)=C/C=C/c1ccc(F)cc1` [Compound B2], for which, in data set [1] (setting [5]), the inhibition at 20 µM stood at 18.7 ± 1.7%. In data set [2], the IC50 amounted to 510 ± 10 nM.
In data set [2], `O=S(=O)(F)C(Br)=CC=Cc1ccc2ccccc2c1` [Compound A12] had an IC50 of 2910 ± 260 nM.
In the case of `CC(=O)[C@H]1CC[C@H]2[C@@H]3CCC4=CC(=O)CC[C@]4(C)[C@H]3CC[C@]12C` [Progesterone, reference compound], the Papp in data set [3] (pH 7.4, Pe×10^-6cm/s Exp. value, three independent experiments) was 18.2 ×10⁻⁶ cm/s. For the same compound, the BBB penetration result in data set [4] is listed as “CNS+ (“CNS +” (high BBB permeation): Pe (× 10^‒6 cm/s) >4.0)”.
Turning to `O=S(=O)(F)C(Br)=CC=Cc1ccccc1Br` [Compound A8], the IC50 amounted to 107 ± 2 nM in data set [1] (AChE from electric eel) and 440 ± 180 nM in data set [2]. Also, the apparent permeability coefficient (Papp) in data set [3] (pH 7.4, Pe) is 10.7 ×10⁻⁶ cm/s. For the same compound, the BBB penetration result in data set [4] is given as “CNS+ (“CNS +” (high BBB permeation): Pe (× 10^‒6 cm/s) >4.0)”. For the same compound, the “Pe×10^-6cm/s Exp. value” in data set [4] (PAMPA-BBB, three independent experiments) is listed as 10.7 ×10^-6cm/s.
As to `O=S(=O)(F)C(Br)=CC=Cc1ccc(-c2ccccc2)cc1` [Compound A7], the inhibition at 20 µM in data set [1] (setting [5]) amounted to 11.9 ± 0.5%; in data set [2] it was 45.2 ± 2%.
`O=S(=O)(F)/C(=C/C=C/c1ccccc1)c1ccc(Oc2ccccc2)cc1` [Compound D4]: the inhibition at 20 µM in data set [1] (setting [5]) came out at 36.7 ± 2.8%; in data set [2], 41.2 ± 1.1%.
For `O=S(=O)(F)C(Br)=CC=Cc1cccc(C(F)(F)F)c1` [Compound A17], in data set [1] (setting [5]), the inhibition at 20 µM was 12.1 ± 0.7%. In data set [2], this compound showed an IC50 of 430 ± 30 nM.
As to `O=S(=O)(F)C(Br)=CC=Cc1ccc(Cl)cc1` [Compound A3], the “AChE % inhibition at 20 µM” value in data set [1] (setting [5]) is on record as 33.9 ± 0.9%. In addition, the “BuChE % inhibition at 20 µM” value in data set [2] came out at 42.2 ± 2.1%.
Take `O=S(=O)(F)/C(C#Cc1cccc(Br)c1)=C/C=C/c1ccccc1` [Compound D8]: the IC50 was 2730 ± 100 nM in data set [1] (AChE from electric eel) and 4560 ± 2650 nM in data set [2].
`O=S(=O)(F)/C(C#Cc1ccsc1)=C/C=C/c1ccccc1` [Compound D13]: the inhibition at 20 µM in data set [1] (setting [5]) amounted to 14.7 ± 0.2%; in data set [2], 31.3 ± 0.4%.
In the case of `O=S(=O)(F)/C(Cl)=C/C=C/c1ccccc1` [Compound B1], the inhibition at 20 µM in data set [1] (setting [5]) amounted to 35.9 ± 1.4%. In data set [2], this compound had an IC50 of 440 ± 40 nM.
As to `O=S(=O)(F)/C(=C/C=C/c1ccccc1)c1ccc2ccccc2c1` [Compound D7], the inhibition at 20 µM in data set [1] (setting [5]) came to 42.3 ± 0.5%; in data set [2], 7.4 ± 0.2%.
On the same counts, the results for `Cc1ccc(S(=O)(=O)n2cc(C=CC=C(Br)S(=O)(=O)F)c3ccccc32)cc1` [Compound A19] are 46.2 ± 0.4% and 46 ± 1.6%.
On the same counts, the results for `Cc1ccc(C#C/C(=C\C=C\c2ccccc2)S(=O)(=O)F)cc1` [Compound D12] are 43.5 ± 4% and 34.7 ± 0.1%.
Turning to `O=[N+]([O-])c1ccccc1C=CC=C(Br)S(=O)(=O)F` [Compound A11], the IC50 is 150 ± 10 nM in data set [1] (AChE from electric eel) and 270 ± 150 nM in data set [2].
As to `O=S(=O)(F)C(Br)=CC=CC=Cc1ccccc1` [Compound A20], the inhibition at 20 µM in data set [1] turned out to be 18.7 ± 2.4%. Also, the IC50 in data set [2] was 12500 nM.
With `O=S(=O)(F)/C(I)=C/C=C/c1ccccc1` [Compound C1, δ-phenyl-α-I-dienyl sulphonyl fluoride], the inhibition at 20 µM in data set [1] (setting [5]) amounted to 23.4 ± 2.8%. In data set [2], this compound showed an IC50 of 1760 ± 620 nM.
For the compound `O=S(=O)(F)/C(C#CC1CC1)=C/C=C/c1ccccc1` [Compound D14], the values for the IC50 in data set [1] (AChE from electric eel) and in data set [2] were 1540 ± 320 nM and 430 ± 80 nM, respectively.
In the case of `O=S(=O)(F)/C(C#Cc1ccccc1)=C/C=C/c1ccccc1` [Compound D11], the inhibition at 20 µM in data set [1] (setting [5]) came out at 30.4 ± 0.1%; in data set [2], 24.3 ± 0.4%.
As to `COc1ccc(/C=C/C=C(\Cl)S(=O)(=O)F)cc1` [Compound B4], the inhibition at 20 µM in data set [1] (setting [5]) was found to be 30.1 ± 3.8%. Further, the IC50 in data set [2] came out at 540 ± 190 nM.
